Experimental data taken from paper PMC6001238, “Iterative Chemical Engineering of Vancomycin Leads to Novel Vancomycin Analogs With a High in Vitro Therapeutic Index” (Frontiers in Microbiology, 2018).
Values after ≈ are worked out from the molar mass of the structure shown.

Experiments:
[1] = test system: Clostridium difficile ATJ ribotype 014/20; assay: MIC, plate drop assay, C. difficile ATJ ribotype 014/20; format: cell-based; conditions: for MIC-fold improvement vs. vancomycin: C. difficile ATJ ribotype 014/20
Method: (§1) Bacterial lawns of both C. difficile strains were prepared by adding 0.5 mL overnight culture to 8 mL sloppy BHI agar (0.4% agar) supplemented with 1.5 g/L CaCl2⋅2H2O and 81.2 g/L MgCl2⋅6H2O, and pouring the mixture into Petri plates. A twofold dilution series of the selected vancomycin analogs, vancomycin ([…]) and daptomycin (25 μM) was spotted (10 μL) on the bacterial lawn. Spots were air-dried and the plates were incubated overnight at 37°C in an anaerobic cabinet. Ultrapure water was included as negative control. The assay was performed in triplicate. Inhibition was observed by cleared spots.

[2] = test system: Murine leukemia (L1210) cells; assay: Cytostatic activity, L1210 cell proliferation; format: cell-based; conditions: mean ± SD of three experiments; highest concentration tested 250 µM; 2 days; read-out: Toxicity (IC50) L1210
Summary of the method: (§2)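 Suspensions (300,000–500,000 cells/mL) combined with equal volumes of diluted compound; 37°C; L1210 2 d / CEM 3 d / HeLa 4 d; counted by Coulter counter; IC50 vs untreated wells.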

S. aureus VRSA = assay: MIC, broth microdilution, vancomycin-resistant S. aureus (VRSA); format: cell-based, Staphylococcus aureus; conditions: for MIC: Staphylococcus aureus VRSA, read-out: MIC; for MIC-fold improvement vs. vancomycin: VRSA, ratio of MIC of vancomycin and MIC of analogue
Summary of the method: (§3)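 Following CLSI antimicrobial susceptibility standards, organisms were tested by broth microdilution. Controls comprised ultrapure water plus broth left uninoculated. For a single condition, 10 μM vancomycin (final) accompanied the analog or control agent.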

[3] = test system: S. aureus VSSA (ATCC 6538); assay: MIC, broth microdilution, vancomycin-sensitive S. aureus (VSSA/MSSA, ATCC 6538); format: cell-based, Staphylococcus aureus; conditions: for MIC: Staphylococcus aureus VSSA, read-out: MIC; for MIC-fold improvement vs. vancomycin: VSSA, ratio of MIC of vancomycin and MIC of analogue
Summary of the method: as §3

[4] = test system: human T-lymphocyte (CEM) cells; assay: Cytostatic activity, CEM cell proliferation; format: cell-based; conditions: mean ± SD of three experiments; highest concentration tested 250 µM; 3 days; read-out: Toxicity (IC50) CEM
Summary of the method: as §2

S. aureus VISA/HIP5827 = assay: MIC, broth microdilution, vancomycin-intermediate S. aureus VISA HIP5827; format: cell-based, Staphylococcus aureus; conditions: for MIC: Staphylococcus aureus VISA/HIP5827, read-out: MIC; for MIC-fold improvement vs. vancomycin: VISA/HIP5827, ratio of MIC of vancomycin and MIC of analogue
Summary of the method: as §3

E. faecalis VSE 1 = assay: MIC, broth microdilution, vancomycin-sensitive E. faecalis (VSE 1); format: cell-based, Enterococcus faecalis; conditions: for MIC: Enterococcus faecalis VSE 1 (vancomycin-sensitive), read-out: MIC; for MIC-fold improvement vs. vancomycin: VSE 1, ratio of MIC of vancomycin and MIC of analogue
Summary of the method: as §3

E. faecalis VRE 53 = assay: MIC, broth microdilution, vancomycin-resistant E. faecalis VRE 53 (VanA); format: cell-based, Enterococcus faecalis; conditions: for MIC: Enterococcus faecalis VRE 53 (vancomycin-resistant), read-out: MIC; for MIC-fold improvement vs. vancomycin: VRE 53, ratio of MIC of vancomycin and MIC of analogue
Summary of the method: as §3

[5] = test system: Clostridium difficile AIU ribotype 027; assay: MIC, plate drop assay, C. difficile AIU ribotype 027; format: cell-based; conditions: for MIC-fold improvement vs. vancomycin: C. difficile AIU ribotype 027; for MIC: C. difficile AIU ribotype 027, plate drop assay
Method: as §1

E. faecalis VRE 29 = assay: MIC, broth microdilution, vancomycin-resistant E. faecalis VRE 29 (VanA); format: cell-based, Enterococcus faecalis; conditions: for MIC: Enterococcus faecalis VRE 29 (vancomycin-resistant), read-out: MIC; for MIC-fold improvement vs. vancomycin: VRE 29, ratio of MIC of vancomycin and MIC of analogue
Summary of the method: as §3

E. faecalis VRE 6 = assay: MIC, broth microdilution, vancomycin-resistant E. faecalis VRE 6 (VanA); format: cell-based, Enterococcus faecalis; conditions: for MIC: Enterococcus faecalis VRE 6 (vancomycin-resistant), read-out: MIC; for MIC-fold improvement vs. vancomycin: VRE 6, ratio of MIC of vancomycin and MIC of analogue
Summary of the method: as §3

MRSA KS1 = assay: MIC, broth microdilution, MRSA KS1; format: cell-based, Staphylococcus aureus; conditions: for MIC-fold improvement vs. vancomycin: MRSA KS1, ratio of MIC of vancomycin and MIC of analogue; for MIC: Staphylococcus aureus MRSA KS1, read-out: MIC
Summary of the method: as §3

MRSA KS6 = assay: MIC, broth microdilution, MRSA KS6; format: cell-based, Staphylococcus aureus; conditions: for MIC-fold improvement vs. vancomycin: MRSA KS6, ratio of MIC of vancomycin and MIC of analogue; for MIC: Staphylococcus aureus MRSA KS6, read-out: MIC
Summary of the method: as §3

[6] = test system: L1210, CEM and HeLa cell lines; assay: Cytostatic activity, average or summary over L1210, CEM and HeLa; format: cell-based; conditions: average of L1210, CEM and HeLa; read-out: Toxicity (IC50) Average
Summary of the method: as §2

MRSA KS89 = assay: MIC, broth microdilution, MRSA KS89; format: cell-based, Staphylococcus aureus; conditions: for MIC-fold improvement vs. vancomycin: MRSA KS8, ratio of MIC of vancomycin and MIC of analogue; for MIC: Staphylococcus aureus MRSA KS8, read-out: MIC
Summary of the method: as §3

[7] = test system: human cervix carcinoma (HeLa) cells; assay: Cytostatic activity, HeLa cell proliferation; format: cell-based; conditions: mean ± SD of three experiments; highest concentration tested 250 µM; 4 days; read-out: Toxicity (IC50) HeLa
Summary of the method: as §2

MRSA KS2 = assay: MIC, broth microdilution, MRSA KS2; format: cell-based, Staphylococcus aureus; conditions: for MIC-fold improvement vs. vancomycin: MRSA KS2, ratio of MIC of vancomycin and MIC of analogue; for MIC: Staphylococcus aureus MRSA KS2, read-out: MIC
Summary of the method: as §3

E. faecalis VRE 37 = assay: MIC, broth microdilution, vancomycin-resistant E. faecalis VRE 37 (VanA); format: cell-based, Enterococcus faecalis; conditions: for MIC: Enterococcus faecalis VRE 37 (vancomycin-resistant), read-out: MIC; for MIC-fold improvement vs. vancomycin: VRE 37, ratio of MIC of vancomycin and MIC of analogue
Summary of the method: as §3

| SMILES | MIC-fold improvement vs. vancomycin [1] | IC50 [2] [µM] | MIC (S. aureus VRSA) [µM] | MIC-fold improvement vs. vancomycin (S. aureus VRSA) | MIC [3] [µM] | MIC-fold improvement vs. vancomycin [3] | IC50 [4] [µM] | MIC (S. aureus VISA/HIP5827) [µM] | MIC-fold improvement vs. vancomycin (S. aureus VISA/HIP5827) | MIC (E. faecalis VSE 1) [µM] | MIC-fold improvement vs. vancomycin (E. faecalis VSE 1) | MIC (E. faecalis VRE 53) [µM] | MIC-fold improvement vs. vancomycin (E. faecalis VRE 53) | MIC-fold improvement vs. vancomycin [5] | MIC (E. faecalis VRE 29) [µM] | MIC-fold improvement vs. vancomycin (E. faecalis VRE 29) | MIC (E. faecalis VRE 6) [µM] | MIC-fold improvement vs. vancomycin (E. faecalis VRE 6) | MIC-fold improvement vs. vancomycin (MRSA KS1) | MIC (MRSA KS1) [µM] | further results |
| --- | --- | --- | --- | --- | --- | --- | --- | --- | --- | --- | --- | --- | --- | --- | --- | --- | --- | --- | --- | --- | --- |
| CN[C@H](CC(C)C)C(=O)N[C@H]1C(=O)N[C@@H](CC(N)=O)C(=O)N[C@H]2C(=O)N[C@H]3C(=O)N[C@H](C(=O)N[C@H](C(=O)NCC(=O)Nc4ccc(C)cc4)c4cc(O)cc(O)c4-c4cc3ccc4O)[C@H](O)c3ccc(c(Cl)c3)Oc3cc2cc(c3O[C@@H]2O[C@H](CO)[C@@H](O)[C@H](O)[C@H]2O[C@H]2C[C@](C)(N)[C@H](O)[C@H](C)O2)Oc2ccc(cc2Cl)[C@H]1O [Vanc-4] | 5.6 | > 250 | 6.25 (≈ 9.97 µg/mL) | 16 | 0.39 (≈ 0.622 µg/mL) | 2 | > 250 | 0.39 (≈ 0.622 µg/mL) | 16 | 0.39 (≈ 0.622 µg/mL) | 4 | 6.25 (≈ 9.97 µg/mL) | 64 | <1.8 | 6.25 (≈ 9.97 µg/mL) | 64 | 3.13 (≈ 4.99 µg/mL) | 64 | 2 | 0.39 (≈ 0.622 µg/mL) | MIC [5]: >25 µM; MIC-fold improvement vs. vancomycin (MRSA KS6): 2; MIC (MRSA KS6): 0.39 µM (≈ 0.622 µg/mL); IC50 [6]: > 250 µM; MIC-fold improvement vs. vancomycin (MRSA KS89): 2; MIC (MRSA KS89): 0.39 µM (≈ 0.622 µg/mL); IC50 [7]: > 250 µM; MIC-fold improvement vs. vancomycin (MRSA KS2): 4; MIC (MRSA KS2): 0.20 µM (≈ 0.319 µg/mL); MIC (E. faecalis VRE 37): 6.25 µM (≈ 9.97 µg/mL); MIC-fold improvement vs. vancomycin (E. faecalis VRE 37): 128 |
| CCCCC#Cc1ccc(/C=C/C(=O)NCCNC(=O)[C@H]2NC(=O)[C@H]3NC(=O)[C@H](NC(=O)[C@@H]4NC(=O)[C@H](CC(N)=O)NC(=O)[C@H](NC(=O)[C@@H](CC(C)C)NC)[C@H](O)c5ccc(c(Cl)c5)Oc5cc4cc(c5O[C@@H]4O[C@H](CO)[C@@H](O)[C@H](O)[C@H]4O[C@H]4C[C@](C)(N)[C@H](O)[C@H](C)O4)Oc4ccc(cc4Cl)[C@H]3O)c3ccc(O)c(c3)-c3c(O)cc(O)cc32)cc1 [Vanc-48] | up to 45 | 142 ± 21 | 1.56 (≈ 2.65 µg/mL) | 64 | 0.20 (≈ 0.34 µg/mL) | 4 | 83 ± 11 | 1.56 (≈ 2.65 µg/mL) | 4 | 0.78 (≈ 1.33 µg/mL) | 2 | 6.25 (≈ 10.6 µg/mL) | 64 | ≤ 58 | 3.13 (≈ 5.33 µg/mL) | 128 | 1.56 (≈ 2.65 µg/mL) | 128 | >8 | <0.10 | MIC ([1]; C. difficile ATJ ribotype 014/20, plate drop assay): 0.78 µM (≈ 1.33 µg/mL); MIC-fold improvement vs. vancomycin ([1]; listed as Vanc- 48): 45; MIC [5]: 0.78 µM (≈ 1.33 µg/mL); MIC-fold improvement vs. vancomycin ([5]; listed as Vanc- 48): 58; MIC-fold improvement vs. vancomycin (MRSA KS6): 0.25; MIC (MRSA KS6): 3.13 µM (≈ 5.33 µg/mL); IC50 [6]: 158 µM; MIC-fold improvement vs. vancomycin (MRSA KS89): 2; MIC (MRSA KS89): 0.39 µM (≈ 0.664 µg/mL); IC50 [7]: > 250 µM; MIC-fold improvement vs. vancomycin (MRSA KS2): 4; MIC (MRSA KS2): 0.20 µM (≈ 0.34 µg/mL); MIC (E. faecalis VRE 37): 3.13 µM (≈ 5.33 µg/mL); MIC-fold improvement vs. vancomycin (E. faecalis VRE 37): 128 |
| CNC(CC(C)C)C(=O)NC1C(=O)NC(CC(N)=O)C(=O)NC2C(=O)NC3C(=O)NC(C(=O)NC(C(=O)NCCCNC(=O)c4cc5ccccc5o4)c4cc(O)cc(O)c4-c4cc3ccc4O)C(O)c3ccc(c(Cl)c3)Oc3cc2cc(c3OC2OC(CO)C(O)C(O)C2OC2CC(C)(N)C(O)C(C)O2)Oc2ccc(cc2Cl)C1O (stereo not shown) [Vanc-25] | 5.6 | > 250 | 3.13 (≈ 5.16 µg/mL) | 32 | 0.39 (≈ 0.643 µg/mL) | 2 | > 250 | 0.39 (≈ 0.643 µg/mL) | 16 | 0.39 (≈ 0.643 µg/mL) | 4 | 25 (≈ 41.2 µg/mL) | 16 | 4 | 6.25 (≈ 10.3 µg/mL) | 64 | 0.78 (≈ 1.29 µg/mL) | 256 | 2 | 0.39 (≈ 0.643 µg/mL) | MIC-fold improvement vs. vancomycin (MRSA KS6): 2; MIC (MRSA KS6): 0.39 µM (≈ 0.643 µg/mL); IC50 [6]: 199 µM; MIC-fold improvement vs. vancomycin (MRSA KS89): 2; MIC (MRSA KS89): 0.39 µM (≈ 0.643 µg/mL); IC50 [7]: 98 ± 32 µM; MIC-fold improvement vs. vancomycin (MRSA KS2): 2; MIC (MRSA KS2): 0.39 µM (≈ 0.643 µg/mL); MIC (E. faecalis VRE 37): 12.5 µM (≈ 20.6 µg/mL) |
